Experimental data from ChEMBL document CHEMBL2439958, “Inhibitory effect of oxygenated cholestan-3β-ol derivatives on the growth of Mycobacterium tuberculosis” (Bioorg Med Chem Lett, 2013).
Converted amounts (≈) assume the structure as drawn.

Columns and labels:
[1] = Selectivity index, ratio of IC50 for african green monkey Vero cells to MIC90 for Mycobacterium tuberculosis H37Rv; type: functional
[2] = tested on: Mycobacterium tuberculosis; experiment: microbe, parasite or virus in culture; type: functional; details: H37Rv
Vero = experiment: Cytotoxicity against african green monkey Vero cells by tetrazolium dye reduction assay; type: ADME, cell-based; details: Chlorocebus sabaeus

Row | SMILES | Selectivity Index [1] | MIC90 [2] [µM] | IC50 (Vero) [µM]
1 | NNC(=O)c1ccncc1 [ISONIAZID] | >320 | 0.4 (≈ 0.0549 µg/mL) | > 128
2 | CC(C)CCC[C@@H](C)[C@H]1CC[C@H]2[C@@H]3CC(=O)[C@H]4C[C@@H](O)CC[C@]4(C)[C@H]3CC[C@]12C [5alpha-CHOLESTAN-3beta-OL-6-ONE] | 15.3 | 6 (≈ 2.42 µg/mL) | 92
3 | C[C@H](CCCC(C)(C)O)[C@H]1CC[C@H]2[C@@H]3CC=C4C[C@@H](O)CC[C@]4(C)[C@H]3CC[C@]12C |  | > 128 | > 128
4 | CC(C)CCC[C@@H](C)[C@H]1CC[C@H]2[C@@H]3[C@@H](O)C[C@H]4C[C@@H](O)CC[C@]4(C)[C@H]3CC[C@]12C |  | > 128 | 
5 | C[C@@H]1CC[C@@]2(OC1)O[C@H]1C[C@H]3[C@@H]4CC=C5C[C@@H](O)CC[C@]5(C)[C@H]4CC[C@]3(C)[C@H]1[C@@H]2C [DISOGENIN] |  | > 128 | 
6 | CC(C)CCC[C@@H](C)[C@H]1CC[C@H]2[C@@H]3C(=O)C=C4C[C@@H](O)CC[C@]4(C)[C@H]3CC[C@]12C [7-OXOCHOLESTEROL] | <0.6 | > 128 | 75
7 | C[C@@H](CO)CCC[C@@H](C)[C@H]1CC[C@H]2[C@@H]3CC=C4C[C@@H](O)CC[C@]4(C)[C@H]3CC[C@]12C |  | > 128 | 
8 | CC(C)CCC[C@@H](C)[C@H]1CC[C@H]2[C@@H]3[C@H](F)C(=O)[C@H]4C[C@@H](O)CC[C@]4(C)[C@H]3CC[C@]12C | 8.7 | 4.6 (≈ 1.94 µg/mL) | 40
9 | CC(=O)O[C@H]1CC[C@@]2(C)C(=CC(=O)[C@H]3[C@@H]4CC[C@H]([C@H](C)CCCC(C)(C)O)[C@@]4(C)CC[C@@H]32)C1 |  | > 128 | > 128
10 | CO[C@H]1/C=C/O[C@@]2(C)Oc3c(C)c(O)c4c(O)c(c(/C=N/N5CCN(C)CC5)c(O)c4c3C2=O)NC(=O)/C(C)=C\C=C\[C@H](C)[C@H](O)[C@@H](C)[C@@H](O)[C@@H](C)[C@H](OC(C)=O)[C@@H]1C [RIFAMPIN] |  | 0.07 (≈ 0.0576 µg/mL) | 
11 | C[C@H](CCCC(C)(C)O)[C@H]1CC[C@H]2[C@@H]3[C@H](O)C[C@H]4C[C@@H](O)CC[C@]4(C)[C@H]3CC[C@]12C |  | > 128 | 
12 | CC(=O)O[C@H]1CC[C@@]2(C)C(=CC(=O)[C@H]3[C@@H]4CC[C@H]([C@H](C)CCCC(C)C)[C@@]4(C)CC[C@@H]32)C1 [7-OXOCHOLESTERYL ACETATE] |  | > 128 | > 128
13 | C[C@H](CCCC(C)(C)O)[C@H]1CC[C@H]2[C@@H]3[C@@H](O)C[C@H]4C[C@@H](O)CC[C@]4(C)[C@H]3CC[C@]12C | >5.3 | 24 (≈ 10.1 µg/mL) | > 128
14 | CC(C)CCC[C@@H](C)[C@H]1CC[C@H]2[C@@H]3[C@H](O)C[C@H]4C[C@@H](O)CC[C@]4(C)[C@H]3CC[C@]12C |  | > 128 | 
15 | CC(=O)O[C@H]1CC[C@@]2(C)[C@@H](CC(=O)[C@@H]3[C@@H]2CC[C@]2(C)[C@@H]([C@H](C)CCCC(C)(C)O)CC[C@@H]32)C1 |  | > 128 | > 128
16 | CC(=O)O[C@H]1CC[C@@]2(C)C(=CC[C@H]3[C@@H]4CC[C@H]([C@H](C)CCCC(C)(C)O)[C@@]4(C)CC[C@@H]32)C1 |  | > 128 | 
17 | CC(=O)O[C@H]1CC[C@@]2(C)[C@@H](CC(=O)[C@@H]3[C@@H]2CC[C@]2(C)[C@@H]([C@H](C)CCCC(C)C)CC[C@@H]32)C1 |  | > 128 | > 128
18 | CC(C)CCC[C@@H](C)[C@H]1CC[C@H]2[C@@H]3C(=O)C[C@H]4C[C@@H](O)CC[C@]4(C)[C@H]3CC[C@]12C | 7.8 | 8 (≈ 3.22 µg/mL) | 62
19 | C[C@@H](CO)CCC[C@@H](C)[C@H]1[C@@H](O)C[C@H]2[C@@H]3CC=C4C[C@@H](O)CC[C@]4(C)[C@H]3CC[C@]12C | >21 | 6 (≈ 2.51 µg/mL) | > 128
20 | CC(C)CCC[C@@H](C)[C@H]1CC[C@H]2[C@@H]3[C@H](F)[C@@H](O)[C@H]4C[C@@H](O)CC[C@]4(C)[C@H]3CC[C@]12C | <0.4 | > 128 | 41
21 | CC(C)CCC[C@@H](C)[C@H]1CC[C@H]2[C@@H]3CC(=O)[C@H]4C[C@@H](O[Si](C)(C)C)CC[C@]4(C)[C@H]3CC[C@]12C | 10.9 | 3.5 (≈ 1.66 µg/mL) | 38
